Source: patent US9999616B2 (ZENITH EPIGENETICS LTD., priority 2013, dated 2018)

Experiments:
[1] = test system: hIL-17 mRNA; assay: Inhibition of hIL-17 mRNA transcription in OKT3-stimulated peripheral blood mononuclear cells; assay type: cell-based; conditions: human PBMC, OKT3 stimulation 6 h, read-out: IL-17 Activity
Procedure: Human peripheral blood mononuclear cells were plated (2.0×10^5 cells per well) in a 96-well plate in 45 μL OpTimizer T Cell expansion media (Life Technologies) containing 20 ng/ml IL-2 and penicillin/streptomycin. The cells were treated with increasing concentrations of the test compound or DMSO (0.1%), and incubated at 37° C., 5% CO2 for 1 h before addition of 10× stock OKT3 antibody at 10 ug/ml in media. Triplicate wells were used for each concentration. Cells were incubated at 37° C., 5% CO2 for 6 h before the cells were harvested. At time of harvest, cells were pelleted by centrifugation at 800 rpm for 5 min. Cells were harvested using the mRNA Catcher PLUS kit according to manufacturer's instructions. The eluted mRNA was then used in a one-step quantitative real-time PCR reaction, using components of the RNA UltraSense™ One-Step Kit (Life Technologies) together with Applied Biosystems TaqMan® primer-probes for hIL-17 and Cyclophilin. Real-time PCR plates were run on a ViiA™7 real time PCR machine (Applied Biosystems), data was analyzed, normalizing the Ct values for hIL-17 to an internal control, prior to determining the fold induction of each unknown sample, relative to the control.

[2] = test system: c-myc in Human AML MV4-11 cells; assay: Inhibition of cMYC expression (mRNA, real-time PCR) in MV4-11 cells; assay type: cell-based; conditions: 3 h treatment, cMYC mRNA by real-time PCR
How it was run: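 MV4-11 cells in IMDM with 10% FBS were treated with increasing compound concentrations (DMSO 0.1%) for 3 h at 37 °C, in triplicate. Isolated mRNA was quantified by one-step TaqMan RT-qPCR, cMYC Ct normalized to cyclophilin, and fold expression given relative to DMSO control.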

[3] = test system: Human AML MV-4-11 cells; assay: Inhibition of cell proliferation in MV4-11 cells (CellTiter Aqueous One); assay type: cell-based; conditions: for IC50: MV4-11, 72 h
How it was run: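 MV4-11 cells, 5×10^4 per well in IMDM with 10% FBS, were exposed to increasing compound concentrations or 0.1% DMSO for 72 h at 37 °C in triplicate. Viability was read by MTS (CellTiter Aqueous One) absorbance at 490 nm after 3-4 h. IC50 was derived from background-corrected signal relative to DMSO.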

[4] = biological target: Brd4 bromodomain 1 (BRD4(1)) (Homo sapiens, UniProt O60885); assay: Inhibition of tetra-acetylated histone H4 binding to Brd4 bromodomain 1, measured by FRET (HTRF); design: made in house; host or cells: E. coli BL21(DE3); conditions: 2 h at room temperature
How it was run: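 N-terminally His-tagged bromodomain (200 nM), expressed in E. coli and purified by Ni affinity and size exclusion, was incubated with biotinylated tetra-acetylated H4 peptide (25-50 nM), Eu-cryptate streptavidin and XL665 anti-His in HEPES pH 7.4 buffer with 0.2% DMSO. Reactions ran 2 h at room temperature. IC50 came from the 665/620 nm fluorescence decrease.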

[5] = test system: hIL-6 mRNA; assay: Inhibition of hIL-6 mRNA transcription in LPS-stimulated U937 macrophages; assay type: cell-based, Human; conditions: Homo sapiens, U-937, PMA-differentiated U937 cells, 1 h pretreatment, LPS 3 h, read-out: IL-6 activity
How it was run: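 PMA-differentiated U937 macrophages (60 ng/mL PMA, 3 days) pretreated 1 h with compound in 0.1% DMSO, then stimulated with 1 ug/mL E. coli LPS for 3 h at 37° C. IL-6 mRNA quantified by one-step TaqMan qRT-PCR, normalized to cyclophilin; fold expression relative to control, triplicate wells.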

| Compound | IC50 [1] [µM] | IC50 [2] [µM] | IC50 [3] [µM] | IC50 [4] [µM] | IC50 [5] [µM] | Cell Proliferation activity ([3]; 72 h) |
| --- | --- | --- | --- | --- | --- | --- |
| Cc1nc2c(-c3cnccc3C(F)(F)F)cc(-c3c(C)noc3C)cc2[nH]1 [Example Compound 50, 3,5-dimethyl-4-(2-methyl-4-(4-(trifluoro-methyl)pyridin-3-yl)-1H-benzo[d]imidazol-6-yl)isoxazole] | 0.3 to 3 | 0.3 to 3 | ≤ 0.3 | ≤ 0.3 | ≤ 0.3 |  |
| Cc1nc2c(-c3ccc(N)nc3C)cc(-c3c(C)noc3C)cc2[nH]1 [Example Compound 68, 5-(6-(3,5-dimethyl-isoxazol-4-yl)-2-methyl-1H-benzo[d]imidazol-4-yl)-6-methyl-pyridin-2-amine] | ≤ 0.3 | ≤ 0.3 | ≤ 0.3 | ≤ 0.3 | ≤ 0.3 |  |
| Cc1noc(C)c1-c1cc(-c2cccc(C(N)=O)c2C)c2nc[nH]c2c1 [Example Compound 73, 3-(6-(3,5 dimethyl-isoxazol-4-yl)-1H-benzo[d]imidazol-4-yl)-2-methyl-benzamide] | 0.3 to 3 | ≤ 0.3 | ≤ 0.3 | ≤ 0.3 | ≤ 0.3 |  |
| Cc1nc2c(-c3c(C)noc3C)cc(-c3c(C)cnn3C)cc2[nH]1 [Example Compound 178, 4-(6-(1,4-dimethyl-1H-pyrazol-5-yl)-2-methyl-1H-benzo[d]imidazol-4-yl)-3,5-dimethylisoxazole] | ≤ 0.3 | 0.3 to 3 | 3 to 30 | 0.3 to 3 | 0.3 to 3 |  |
| Cc1nc2c(Nc3c(C)nn(C)c3C)cc(-c3c(C)noc3C)cc2[nH]1 [Example Compound 146, 6-(3,5-dimethyl-isoxazol-4-yl)-2-methyl-N-(1,3,5-trimethyl-1H-pyrazol-4-yl)-1H-benzo[d] imidazol-4-amine] | ≤ 0.3 | ≤ 0.3 | ≤ 0.3 | ≤ 0.3 | ≤ 0.3 |  |
| Cc1noc(C)c1-c1cc(-c2c(C)noc2C)c2[nH]ncc2c1 [Example Compound 21, 4,4′-(1H-indazole-5,7-diyl)bis(3,5-dimethylisoxazole)] | 0.3 to 3 | 0.3 to 3 | 0.3 to 3 | ≤ 0.3 | 0.3 to 3 |  |
| Cc1nc2c(-c3cc(C#N)ccc3C)cc(-c3c(C)noc3C)cc2[nH]1 [Example Compound 58, 3-(6-(3,5-dimethyl-isoxazol-4-yl)-2-methyl-1H-benzo[d]imidazol-4-yl)-4-methyl-benzonitrile] | 0.3 to 3 |  | ≤ 0.3 | ≤ 0.3 | ≤ 0.3 |  |
| Cc1noc(C)c1-c1cc(-c2c(C)noc2C)c2nc(C(C)C)[nH]c2c1 [Example Compound 45, 4,4′-(2-isopropyl-1H-benzo[d]imidazole-4,6-diyl)bis(3,5-dimethylisoxazole)] | 0.3 to 3 | 0.3 to 3 | 0.3 to 3 | ≤ 0.3 |  |  |
| Cc1nc2c(-c3cccnc3C(F)(F)F)cc(-c3c(C)noc3C)cc2[nH]1 [Example Compound 59, 3,5-dimethyl-4-(2-methyl-4-(2-(trifluoro-methyl)pyridin-3-yl)-1H-benzo[d]imidazol-6-yl)isoxazole] | 0.3 to 3 |  | ≤ 0.3 | ≤ 0.3 | ≤ 0.3 |  |
| Cc1noc(C)c1-c1cc2c(c(-c3c(C)noc3C)c1)OCC(=O)N2 [Example Compound 11, 6,8-bis(3,5-dimethylisoxazol-4-yl)-2H-benzo[b][1,4]oxazin-3(4H)-one] | 0.3 to 3 | 0.3 to 3 | 0.3 to 3 | ≤ 0.3 | 0.3 to 3 |  |
| Cc1noc(C)c1-c1cc(Nc2ccccc2)c2nc[nH]c2c1 [Example Compound 7, 6-(3,5-dimethylisoxazol-4-yl)-N-phenyl-1H-benzo[d] imidazol-4-amine] | 0.3 to 3 | 0.3 to 3 | 0.3 to 3 | ≤ 0.3 | ≤ 0.3 |  |
| Cc1nc2c(-c3cc(F)ccc3C)cc(-c3c(C)noc3C)cc2[nH]1 [Example Compound 92, 4-(4-(5-fluoro-2-methyl-phenyl)-2-methyl-1H-benzo[d]imidazol-6-yl)-3,5-dimethyl isoxazole] | 0.3 to 3 | 0.3 to 3 | 0.3 to 3 | ≤ 0.3 | ≤ 0.3 |  |
| Cc1nc2c(-c3ccc4sncc4c3)cc(-c3c(C)noc3C)cc2[nH]1 [Example Compound 137, 4-(4-(benzo[d]isothiazol-5-yl)-2-methyl-1H-benzo[d]imidazol-6-yl)-3,5-dimethyl isoxazole] | 0.3 to 3 | 0.3 to 3 | 0.3 to 3 | ≤ 0.3 | 0.3 to 3 |  |
| Cc1noc(C)c1Nc1cc(-c2c(C)noc2C)cc2[nH]cnc12 [Example Compound 42, N-(6-(3,5-dimethyl-isoxazol-4-yl)-1H-benzo[d]imidazol-4-yl)-3,5-dimethyl-isoxazol-4-amine] | 0.3 to 3 | ≤ 0.3 | ≤ 0.3 | ≤ 0.3 | ≤ 0.3 |  |
| Cc1noc(C)c1-c1cc(-c2c(C)noc2C)c2c(C)c[nH]c2c1 [Example Compound 140, 4,4′-(3-methyl-1H-indole-4,6-diyl)bis(3,5-dimethylisoxazole)] | 0.3 to 3 | ≤ 0.3 | ≤ 0.3 | ≤ 0.3 | ≤ 0.3 |  |
| COc1ncccc1-c1cc(-c2c(C)noc2C)cc2[nH]cnc12 [Example Compound 48, 4-(4-(2-methoxy-pyridin-3-yl)-1H-benzo[d]imidazol-6-yl)-3,5-dimethyl isoxazole] | 0.3 to 3 | 0.3 to 3 | 0.3 to 3 | ≤ 0.3 |  |  |
| Cc1noc(C)c1-c1cc(NCCc2ccccc2)c2nc[nH]c2c1 [Example Compound 142, 6-(3,5-dimethyl-isoxazol-4-yl)-N-phenethyl-1H-benzo[d] imidazol-4-amine] |  | 0.3 to 3 | 0.3 to 3 | 0.3 to 3 | 0.3 to 3 |  |
| Cc1nc2c(-c3ccccc3C)cc(-c3c(C)noc3C)cc2[nH]1 [Example Compound 89, 3,5-dimethyl-4-(2-methyl-4-(o-tolyl)-1H-benzo[d]imidazol-6-yl)isoxazole] |  | ≤ 0.3 | 0.3 to 3 | ≤ 0.3 | 0.3 to 3 |  |
| Cc1nn(C)cc1-c1cc(-c2c(C)noc2C)cc2[nH]cnc12 [Example Compound 18, 4-(4-(1,3-dimethyl-1H-pyrazol-4-yl)-1H-benzo [d]imidazol-6-yl)-3,5-dimethyl isoxazole] |  | 0.3 to 3 | 0.3 to 3 | ≤ 0.3 | ≤ 0.3 |  |
| Cc1nc2c(-c3ccc(F)c(F)c3C)cc(-c3c(C)noc3C)cc2[nH]1 [Example Compound 132, 4-(4-(3,4-difluoro-2-methyl-phenyl)-2-methyl-1H-benzo[d]imidazol-6-yl)-3,5-dimethyl isoxazole] |  | 0.3 to 3 | 0.3 to 3 | 0.3 to 3 | 0.3 to 3 |  |
| Cc1noc(C)c1-c1cc(-c2ccnn2C)cc2[nH]cnc12 [Example Compound 230, 3,5-dimethyl-4-(6-(1-methyl-1H-pyrazol-5-yl)-1H-benzo[d]imidazol-4-yl)isoxazole] |  | 0.3 to 3 |  | 0.3 to 3 | 3 to 30 | Not active |
